Results on two substances are retold here after PMC5814047, “Peptidic inhibitors of insulin-degrading enzyme with potential for dermatological applications discovered via phage display” (PLoS ONE, 2018).

“And” between values parts separate entries of the source, which are not always exact repeats. Identical values can stand only once. Ends that are not written are not given here.

Usually Ki stands for a dissociation constant, usually derived from enzyme kinetics or from competition with a known ligand.

Experiment [1] deals with T1, IDE (Homo sapiens, UniProt P14735).
T1 construct: made in house; host or cells: bacteria
T1 sequence (P14735 1-1019): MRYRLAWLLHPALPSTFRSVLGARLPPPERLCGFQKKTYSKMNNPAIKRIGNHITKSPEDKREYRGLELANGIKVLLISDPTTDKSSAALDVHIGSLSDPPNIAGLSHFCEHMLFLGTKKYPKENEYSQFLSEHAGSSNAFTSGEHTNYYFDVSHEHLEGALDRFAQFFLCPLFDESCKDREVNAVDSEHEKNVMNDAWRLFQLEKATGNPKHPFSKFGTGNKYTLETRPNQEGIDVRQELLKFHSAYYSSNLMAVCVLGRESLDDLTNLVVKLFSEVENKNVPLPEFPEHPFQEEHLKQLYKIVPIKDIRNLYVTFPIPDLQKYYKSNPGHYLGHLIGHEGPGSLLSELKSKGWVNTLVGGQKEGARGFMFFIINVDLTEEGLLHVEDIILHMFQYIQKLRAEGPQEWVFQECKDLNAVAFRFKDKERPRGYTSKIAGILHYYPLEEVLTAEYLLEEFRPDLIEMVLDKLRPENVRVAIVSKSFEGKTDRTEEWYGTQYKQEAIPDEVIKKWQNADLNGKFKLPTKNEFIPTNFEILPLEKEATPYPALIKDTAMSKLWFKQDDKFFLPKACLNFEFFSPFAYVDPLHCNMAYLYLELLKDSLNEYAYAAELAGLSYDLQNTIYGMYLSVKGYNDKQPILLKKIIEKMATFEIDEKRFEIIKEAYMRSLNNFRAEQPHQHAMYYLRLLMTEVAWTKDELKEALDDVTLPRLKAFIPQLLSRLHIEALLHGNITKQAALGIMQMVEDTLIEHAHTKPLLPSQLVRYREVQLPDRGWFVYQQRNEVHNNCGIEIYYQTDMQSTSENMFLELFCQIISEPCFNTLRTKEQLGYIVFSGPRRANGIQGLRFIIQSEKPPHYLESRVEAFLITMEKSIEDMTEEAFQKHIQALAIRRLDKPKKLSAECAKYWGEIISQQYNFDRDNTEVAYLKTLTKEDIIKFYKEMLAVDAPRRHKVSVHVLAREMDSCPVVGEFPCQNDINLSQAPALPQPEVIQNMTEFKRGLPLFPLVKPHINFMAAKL
Nature of the experiment: Vulnerability of peptides to degradation by IDE: 0 vs 4 h pre-incubation, then FRET1 assay. The experiment is classed as biochemical. The settings on record: for IC50: FRET1 assay. How it is done:
IDE activity was quantified by monitoring the degradation of Mca-[…](Dnp) (FRET1, 5 μM), fluoresceinated and biotinylated amyloid ß-protein (FAßB; 500 nM) or recombinant human insulin (50 nM) in PBS supplemented with 0.05% BSA. […] In vitro activity assays incorporated recombinant human IDE (1 nM) purified from bacteria. For quantitation of insulin degradation in primary murine skin fibroblasts, cells (1 x 10^5/well) were plated in 96-well plates and maintained in DMEM supplemented with 10% fetal bovine serum (FBS), 2mM glutamine, penicillin and streptomycin. After addition of insulin (10 nM or 100 nM), samples of conditioned medium were removed daily and quickly frozen, then insulin levels were quantified in parallel by ELISA according to manufacturer’s recommendations (Crystal Chem, Downers Grove, IL, USA). Assessment of the activity of P12-3A against a variety of matrix-metalloproteases was conducted using the Matrix Metalloproteinase (MMP) Inhibitor Profiling Kit, Fluorometric RED (Enzo Life Sciences, Inc., Farmingdale, NY, USA) according to manufacturer’s recommendations using the broad-spectrum MMP inhibitor, NNGH, as a positive control.

Experiment [2] addresses T1, IDE. Nature of the experiment: biochemical. The settings on record: for Percent activity at 500 uM, Mean: N 4; for IC50: dose-response, FRET1. The method, boiled down:
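Recombinant human IDE (1 nM, bacterially expressed) degraded FRET1 substrate (5 μM), fluoresceinated biotinylated amyloid β (500 nM) or human insulin (50 nM) in PBS with 0.05% BSA. Peptides tested included N-acetylated and C-amidated variants.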

Experiment [3] deals with T1, IDE. Nature of the experiment: biochemical. The settings on record: for IC50: insulin ELISA assay, dose-response. The method, boiled down:
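Bacterially expressed recombinant human IDE (1 nM) in PBS with 0.05% BSA. Substrates: FRET1 (5 μM; fluorescence, ex 340/em 420 nm), fluoresceinated biotinylated amyloid β-protein (500 nM; fluorescence polarization, ex 488/em 525 nm), or recombinant human insulin (50 nM; ELISA).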
For orientation: ELISA stands for enzyme-linked immunosorbent assay.

The mark [4] stands for this setting: peptide at 10 uM, insulin 100 nM, normalized to DMSO-only and no-enzyme controls.

For the substance WCYPHCVT [P12-3C], the “Percent Activity (normalized initial velocity of FRET1 hydrolysis)” value at IDE [1] (0-hr incubation, Cmpd 0.12207 uM, relative to DMSO-only controls, individual runs) was 87.1275% and 89.107% and 97.5567%; on IDE [1] (0-hr incubation, Cmpd 0.488281 uM, relative to DMSO-only controls, individual runs), 88.274% and 92.2277% and 96.9846%; on IDE [1] (0-hr incubation, Cmpd 1.95312 uM, relative to DMSO-only controls, individual runs) it was 91.5093% and 89.6687% and 99.5643%; on IDE [1] (0-hr incubation, Cmpd 7.8125 uM, relative to DMSO-only controls, individual runs) it was 83.3253% and 88.0997% and 90.5388%; at IDE [1] (0-hr incubation, Cmpd 31.25 uM, relative to DMSO-only controls, individual runs) it was 61.5604% and 65.1463% and 71.7432%; at IDE [1] (0-hr incubation, Cmpd 125 uM, relative to DMSO-only controls, individual runs), 22.5624% and 28.2506% and 30.6967%. The “Percent Activity (normalized initial velocity of FRET1 hydrolysis)” value was 2.879% and 4.537% and 8.696% at IDE [1] (0-hr incubation, Cmpd 500 uM, relative to DMSO-only controls, individual runs); 96.239% and 102.101% at IDE [1] (4-hr incubation, Cmpd 0.12207 uM, relative to DMSO-only controls, individual runs); 100.910% and 100.775% on IDE [1] (4-hr incubation, Cmpd 0.488281 uM, relative to DMSO-only controls, individual runs); 100.923% and 102.486% on IDE [1] (4-hr incubation, Cmpd 1.95312 uM, relative to DMSO-only controls, individual runs); 97.345% and 105.750% at IDE [1] (4-hr incubation, Cmpd 7.8125 uM, relative to DMSO-only controls, individual runs); 94.256% and 100.607% at IDE [1] (4-hr incubation, Cmpd 31.25 uM, relative to DMSO-only controls, individual runs). In addition, the “Percent Activity (normalized initial velocity of FRET1 hydrolysis)” value is 90.993% and 91.075% at IDE [1] (4-hr incubation, Cmpd 125 uM, relative to DMSO-only controls, individual runs); 24.626% and 23.530% at IDE [1] (4-hr incubation, Cmpd 500 uM, relative to DMSO-only controls, individual runs). Also, the “Percent activity at 500 uM, Mean” value is 6.4% at IDE [2] (initial test, percent of initial velocity relative to DMSO-only controls) and 29.8% on IDE [2] (judged as IC50 <100 uM?). Also, on IDE [3] (setting [4]), the “percent decrease in insulin detected by ELISA, Replicate 1” value is listed as 111.9%. Moreover, the “percent decrease in insulin detected by ELISA, Replicate 2” value on IDE [3] (setting [4]) is 145.7%. Also, the “percent decrease in insulin detected by ELISA, Replicate 3” value on IDE [3] (setting [4]) came out at 105.6%. Besides, on IDE [3] (setting [4]), the “percent decrease in insulin detected by ELISA, Replicate 4” value worked out at 114.6%. The “percent decrease in insulin detected by ELISA, Mean” value at IDE [3] (peptide at 10 uM, insulin 100 nM, normalized to DMSO-only and no-enzyme controls, N=4) was found to be 119.5%.

Regarding WSPISGKFFQRF-NH2 [P12-4A], the Ki on IDE [1] (4-hr incubation, Cheng-Prusoff from IC50, FRET1 KM 10 uM, substrate 5 uM) was found to be 43.5 µM; on IDE [2] (Cheng-Prusoff, KM 10 uM, substrate concentration 5 uM, read-out: Ki values, Mean) it was 4.25 µM; on IDE [2] (substrate FRET1 5 μM, Ki from IC50 with the Cheng-Prusoff equation, read-out: Ki FRET1) it was 4.2 ± 1.3 µM; on IDE [3] (substrate recombinant human insulin 50 nM, Ki from IC50 with the Cheng-Prusoff equation) it was 2.6 ± 0.7 µM. Moreover, the remaining activity at 0.12207 µM on IDE [1] (4 h, 4-hr incubation, Cmpd 0.12207 uM, relative to DMSO-only controls, individual runs, read-out: Percent Activity (normalized initial velocity of FRET1 hydrolysis)) came out at 78.9%. Moreover, the remaining activity at 0.488281 µM at IDE [1] (4 h, 4-hr incubation, Cmpd 0.488281 uM, relative to DMSO-only controls, individual runs, read-out: Percent Activity (normalized initial velocity of FRET1 hydrolysis)) was 81.8%. The remaining activity at 1.95312 µM on IDE [1] (4 h, 4-hr incubation, Cmpd 1.95312 uM, relative to DMSO-only controls, individual runs, read-out: Percent Activity (normalized initial velocity of FRET1 hydrolysis)) amounted to 85.3%. For the same substance, the remaining activity at 7.8125 µM at IDE [1] (4 h, 4-hr incubation, Cmpd 7.8125 uM, relative to DMSO-only controls, individual runs, read-out: Percent Activity (normalized initial velocity of FRET1 hydrolysis)) worked out at 83.2%. The remaining activity at 31.25 µM at IDE [1] (4 h, 4-hr incubation, Cmpd 31.25 uM, relative to DMSO-only controls, individual runs, read-out: Percent Activity (normalized initial velocity of FRET1 hydrolysis)) was found to be 35.7%. The remaining activity at 125 µM on IDE [1] (4 h, 4-hr incubation, Cmpd 125 uM, relative to DMSO-only controls, individual runs, read-out: Percent Activity (normalized initial velocity of FRET1 hydrolysis)) worked out at 51.3%. Besides, the remaining activity at 500 µM at IDE [1] (4 h, 4-hr incubation, Cmpd 500 uM, relative to DMSO-only controls, individual runs, read-out: Percent Activity (normalized initial velocity of FRET1 hydrolysis)) stood at 27.1%; at IDE [2] (judged as IC50 <100 uM?, individual replicates, read-out: Percent activity at 500 uM, Replicate 1-4), 17.7%. Moreover, the IC50 on IDE [1] (4-hr incubation, individual replicates, read-out: IC50s) is 63.7 µM and 66.6 µM; on IDE [1] (4-hr incubation, mean of 2 replicates, read-out: IC50s, Mean), 65.2 µM; on IDE [2] (individual runs, read-out: IC50s, Run 1-6), 6.41 µM and 2.96 µM and 9.75 µM; at IDE [2] (read-out: IC50s, Mean) it was 6.37 µM; at IDE [3] (Replicates 1-3, read-out: IC50s, individual replicates), 6.44 µM and 6.45 µM and 2.48 µM; at IDE [3] (N=3, read-out: IC50s, Mean), 5.12 µM. Besides, the “IC50 <500 uM?” value at IDE [2] (initial test at 500 uM) is recorded as “YES”. For the same substance, the “IC50 <10 uM?” value at IDE [3] (initial test at 10 uM using insulin (100 nM)) is listed as “YES”.
